Results as given in US20080096852A1, “USE OF OCULOSURFACE SELECTIVE GLUCOCORTICOID IN THE TREATMENT OF DRY EYE” (Alcon,Inc., priority 2002, published 2008).

Tests used:
[1] = tested on: dry eye in patients with autoimmune connective tissue disease; conditions: human patients; suspensions 0.005%, 0.05% and 0.1%; one drop each eye four times per day for six weeks
Text: Three different suspensions, containing rimexolone at concentrations of 0.005%, 0.05% and 0.1%, respectively, were utilized in the study. A fourth formulation, which was identical to the three rimexolone suspensions except for the elimination of rimexolone, was utilized as a control (i.e., placebo).
The patients in each group administered one drop of the respective formulations to each eye four times per day for six weeks. Following the end of the six week drug administration period, the patients' symptoms were evaluated.

[2] = tested on: dry eye induced in New Zealand white rabbits; assay: Tear breakup time (TBUT) in rabbit dry eye model (lacrimal gland inflammation); type: in vivo
Method: The ability of low doses of rimexolone to alleviate dry eye conditions was evaluated. […] The experimental procedures are described below. Dry eye was induced in New Zealand white rabbits (approximately 2 kg) by eliciting bilateral inflammation of the lacrimal glands. Tear function was assessed by measuring tear breakup time (“TBUT”) daily for three days, following the induction of dry eye. TBUT was determined by instilling […] into the cul de sac and manually blinking the lids to distribute the fluorescein within the tear film. Under slit lamp observation, the eye was held open and the time to tear film breakup recorded. Efficacy was determined by comparing TBUT relative to pre-inflammation baseline values in drug and vehicle treated animals. In a separate group of animals, susceptibility to desiccation-induced corneal injury was assessed following the induction of lacrimal gland inflammation. Desiccation was initiated by placing the rabbits in a low humidity environment continuously for up to three days. Corneal injury was assessed by determining the uptake of the vital dye, methylene blue. Under general anesthesia, the ocular surface was bathed in a 1% solution of methylene blue for five minutes and then washed. The animals were euthanized, eyes were excised and an 8 mm-diameter section of cornea was isolated and extracted overnight. The concentration of extracted dye was determined spectrophotometrically ([…]). Protection of the cornea is indicated by a lesser uptake of dye in drug treated animals relative to that in vehicle treated rabbits. For both TBUT and corneal injury determinations, dosing (QID) was initiated 24-hours prior to inducing inflammation and was continued for the duration of the study. A second dose-response study was conducted using the procedures described in Example 2 above.

[3] = tested on: desiccation-induced corneal injury in rabbits; assay: Desiccation-induced corneal injury (methylene blue uptake) after lacrimal gland inflammation; type: in vivo, New Zealand white rabbits; conditions: rabbit
Method: The ability of low doses of rimexolone to alleviate dry eye conditions was evaluated. […] The experimental procedures are described below. In a separate group of animals, susceptibility to desiccation-induced corneal injury was assessed following the induction of lacrimal gland inflammation. Desiccation was initiated by placing the rabbits in a low humidity environment continuously for up to three days. Corneal injury was assessed by determining the uptake of the vital dye, methylene blue. Under general anesthesia, the ocular surface was bathed in a 1% solution of methylene blue for five minutes and then washed. The animals were euthanized, eyes were excised and an 8 mm-diameter section of cornea was isolated and extracted overnight. The concentration of extracted dye was determined spectrophotometrically ([…]). Protection of the cornea is indicated by a lesser uptake of dye in drug treated animals relative to that in vehicle treated rabbits. For both TBUT and corneal injury determinations, dosing (QID) was initiated 24-hours prior to inducing inflammation and was continued for the duration of the study. A second dose-response study was conducted using the procedures described in Example 2 above.

[4] = Example 2, tested 0.005%, 0.01%, 0.05 and 0.1%
[5] = Example 3 (second dose-response study)

Structure (SMILES): CCC(=O)[C@@]1(C)[C@H](C)C[C@H]2[C@@H]3CCC4=CC(=O)C=C[C@]4(C)[C@H]3[C@@H](O)C[C@@]21C [rimexolone]
- dry eye symptoms (discomfort) versus vehicle/placebo [1]: less dry eye symptoms
- increases in intraocular pressure [1]: did not exhibit any clinically relevant increases in intraocular pressure
- TBUT expressed as percent of baseline on day three ([2]; Example 2, rimexolone 0.1% suspension, QID, FIG. 1): 66 % of baseline
- maximally effective concentration for restoration of TBUT [2, 4]: 0.1%
- maximally effective concentration for restoration of TBUT [2, 5]: 0.1%
- TBUT restored, percent of baseline on day three ([2]; Example 3 (second dose-response study), rimexolone 0.1%, FIG. 3): 71 % of baseline
- inhibition of desiccation-induced corneal injury (peak efficacy) ([3]; Example 2, rimexolone 0.1% suspension, QID, FIG. 2): 74 % inhibition
- maximally effective concentration for prevention of desiccation-induced corneal staining [3, 4]: 0.1%
- maximally effective concentration for prevention of desiccation-induced corneal staining [3, 5]: 0.1%
- inhibition of corneal staining ([3]; Example 3 (second dose-response study), rimexolone 0.1%, FIG. 4): 77%
